Measurements published in ChEMBL document CHEMBL1153701, “Synthesis and evaluation of antiallodynic and anticonvulsant activity of novel amide and urea derivatives of valproic acid analogues” (2009).
Calls of active or inactive are those of the source. The calls are words filed in the database; no cut-off is given here.

Assays:
Rattus norvegicus [1] = experiment: Antiallodynic activity in ip dosed rat assessed as protection against spinal nerve ligation-induced neuropathic pain; assay type: functional
Rattus norvegicus [2] = organism: Rattus norvegicus; experiment: Ratio of ED50 for antiallodynic activity in rat assessed as protection against spinal nerve ligation-induced neuropathic pain to ED50 for antiepileptic activity in rat by maximal electroshock-induced seizures assay; assay type: functional
Mus musculus [3] = experiment: Antiepileptic activity in ip dosed CF1 mouse assessed as inhibition of maximal electroshock-induced seizures; assay type: functional
Rattus norvegicus [4] = experiment: Antiallodynic activity in rat assessed as protection against spinal nerve ligation-induced neuropathic pain at 80 mg/kg, ip after 30 mins; assay type: functional, organism-based; set-up: dose 80 mg/kg
Mus musculus [5] = experiment: Antiepileptic activity in CF1 mouse assessed as inhibition of maximal electroshock-induced seizures at 300 mg/kg, ip after 4 hrs; assay type: functional, organism-based; set-up: dose 300 mg/kg
Mus musculus [6] = experiment: Neurotoxicity in CF1 mouse assessed as protection against motor impairment at 30 mg/kg, ip after 4 hrs by rotarod test; assay type: functional, organism-based; set-up: dose 30 mg/kg
Mus musculus [7] = experiment: Neurotoxicity in CF1 mouse assessed as protection against motor impairment at 30 mg/kg, ip after 0.5 hrs by rotarod test; assay type: functional, organism-based; set-up: dose 30 mg/kg
Mus musculus [8] = experiment: Antiepileptic activity in CF1 mouse assessed as inhibition of subcutaneous pentylenetetrazole-induced seizures at 30 mg/kg, ip after 0.5 hrs; assay type: functional, organism-based; set-up: dose 30 mg/kg
Mus musculus [9] = experiment: Antiepileptic activity in CF1 mouse assessed as inhibition of maximal electroshock-induced seizures at 100 mg/kg, ip after 0.5 hrs; assay type: functional, organism-based; set-up: dose 100 mg/kg
Mus musculus [10] = experiment: Neurotoxicity in CF1 mouse assessed as protection against motor impairment at 300 mg/kg, ip after 0.5 hrs by rotarod test; assay type: functional, organism-based; set-up: dose 300 mg/kg
Mus musculus [11] = experiment: Antiepileptic activity in CF1 mouse assessed as inhibition of maximal electroshock-induced seizures at 30 mg/kg, ip after 4 hrs; assay type: functional, organism-based; set-up: dose 30 mg/kg
Mus musculus [12] = experiment: Antiepileptic activity in CF1 mouse assessed as inhibition of subcutaneous pentylenetetrazole-induced seizures at 100 mg/kg, ip after 4 hrs; assay type: functional, organism-based; set-up: dose 100 mg/kg
Mus musculus [13] = experiment: Neurotoxicity in CF1 mouse assessed as protection against motor impairment at 100 mg/kg, ip after 4 hrs by rotarod test; assay type: functional, organism-based; set-up: dose 100 mg/kg
Mus musculus [14] = experiment: Antiepileptic activity in CF1 mouse assessed as inhibition of maximal electroshock-induced seizures at 100 mg/kg, ip after 4 hrs; assay type: functional, organism-based; set-up: dose 100 mg/kg
Mus musculus [15] = experiment: Antiepileptic activity in CF1 mouse assessed as inhibition of subcutaneous pentylenetetrazole-induced seizures at 30 mg/kg, ip after 4 hrs; assay type: functional, organism-based; set-up: dose 30 mg/kg
Mus musculus [16] = experiment: Antiepileptic activity in CF1 mouse assessed as inhibition of maximal electroshock-induced seizures at 300 mg/kg, ip after 0.5 hrs; assay type: functional, organism-based; set-up: dose 300 mg/kg
Mus musculus [17] = experiment: Neurotoxicity in CF1 mouse assessed as protection against motor impairment at 300 mg/kg, ip after 4 hrs by rotarod test; assay type: functional, organism-based; set-up: dose 300 mg/kg
Mus musculus [18] = experiment: Antiepileptic activity in CF1 mouse assessed as inhibition of subcutaneous pentylenetetrazole-induced seizures at 300 mg/kg, ip after 4 hrs; assay type: functional, organism-based; set-up: dose 300 mg/kg
Mus musculus [19] = experiment: Antiepileptic activity in CF1 mouse assessed as inhibition of subcutaneous pentylenetetrazole-induced seizures at 100 mg/kg, ip after 0.5 hrs; assay type: functional, organism-based; set-up: dose 100 mg/kg
Mus musculus [20] = experiment: Antiepileptic activity in CF1 mouse assessed as inhibition of maximal electroshock-induced seizures at 30 mg/kg, ip after 0.5 hrs; assay type: functional, organism-based; set-up: dose 30 mg/kg
Mus musculus [21] = experiment: Neurotoxicity in CF1 mouse assessed as protection against motor impairment at 100 mg/kg, ip after 0.5 hrs by rotarod test; assay type: functional, organism-based; set-up: dose 100 mg/kg
Mus musculus [22] = experiment: Antiepileptic activity in CF1 mouse assessed as inhibition of subcutaneous pentylenetetrazole-induced seizures at 300 mg/kg, ip after 0.5 hrs; assay type: functional, organism-based; set-up: dose 300 mg/kg
Rattus norvegicus [23] = experiment: Antiallodynic activity in rat assessed as protection against spinal nerve ligation-induced neuropathic pain at 80 mg/kg, ip after 60 mins; assay type: functional, organism-based; set-up: dose 80 mg/kg
Rattus norvegicus [24] = experiment: Antiallodynic activity in rat assessed as protection against spinal nerve ligation-induced neuropathic pain at 80 mg/kg, ip after 120 mins; assay type: functional, organism-based; set-up: dose 80 mg/kg
Rattus norvegicus [25] = experiment: Anticonvulsant activity in ip dosed albino Sprague-Dawley rat assessed as protection against pilocarpine-induced seizure; assay type: functional
Rattus norvegicus [26] = experiment: Anticonvulsant activity in albino Sprague-Dawley rat assessed as protection against pilocarpine-induced seizure at 65 mg/kg, ip; assay type: functional, organism-based; set-up: dose 65 mg/kg
Rattus norvegicus [27] = experiment: Anticonvulsant activity in albino Sprague-Dawley rat assessed as protection against pilocarpine-induced seizure at 130 mg/kg, ip treated after 30 mins of pilcarpine challenge; assay type: functional, organism-based; set-up: dose 130 mg/kg
Rattus norvegicus [28] = experiment: Antiallodynic activity in rat assessed as protection against spinal nerve ligation-induced neuropathic pain at 80 mg/kg, ip after 180 mins; assay type: functional, organism-based; set-up: dose 80 mg/kg
Rattus norvegicus [29] = experiment: Antiallodynic activity in rat assessed as protection against spinal nerve ligation-induced neuropathic pain at 80 mg/kg, ip after 240 mins; assay type: functional, organism-based; set-up: dose 80 mg/kg
Rattus norvegicus [30] = experiment: Anticonvulsant activity in albino Sprague-Dawley rat assessed as protection against pilocarpine-induced seizure at 600 mg/kg, ip treated after 30 mins of pilcarpine challenge; assay type: functional, organism-based; set-up: dose 600 mg/kg
Rattus norvegicus [31] = experiment: Anticonvulsant activity in albino Sprague-Dawley rat assessed as protection against pilocarpine-induced seizure at 450 mg/kg, ip; assay type: functional, organism-based; set-up: dose 450 mg/kg
Rattus norvegicus [32] = experiment: Anticonvulsant activity in albino Sprague-Dawley rat assessed as protection against pilocarpine-induced seizure at 200 mg/kg, ip; assay type: functional, organism-based; set-up: dose 200 mg/kg

Row | Compound | ED50 (Rattus norvegicus [1]) | ED50 (Mus musculus [3]) | Activity (Mus musculus [5]) | Activity (Mus musculus [6]) | Activity (Mus musculus [7]) | Activity (Mus musculus [8]) | Activity (Mus musculus [9]) | Activity (Mus musculus [10]) | Activity (Mus musculus [11]) | Activity (Mus musculus [12]) | Activity (Mus musculus [13]) | Activity (Mus musculus [14]) | Activity (Mus musculus [15]) | Activity (Mus musculus [16]) | Activity (Mus musculus [17]) | Activity (Mus musculus [18]) | Activity (Mus musculus [19]) | Activity (Mus musculus [20]) | Activity (Mus musculus [21]) | Activity (Mus musculus [22]) | also measured
1 | CCCC(C(N)=O)C(C)C (configuration not stated) | 42 mg/kg | 22 mg/kg | – | – | – | – | – | – | – | – | – | – | – | – | – | – | – | – | – | – | ratio (Rattus norvegicus [2]): 0.52
2 | CCCC(C)C(N)=O (configuration not stated) | – | – | inactive | inactive | inactive | inactive | inactive | inactive | inactive | inactive | inactive | inactive | inactive | inactive | inactive | inactive | inactive | inactive | inactive | inactive | Activity (Rattus norvegicus [4]): inactive; Activity (Rattus norvegicus [23]): inactive
3 | CCC(C)C(N)=O (configuration not stated) | – | – | inactive | inactive | inactive | inactive | inactive | inactive | inactive | inactive | inactive | inactive | inactive | inactive | inactive | inactive | inactive | inactive | inactive | inactive | Activity (Rattus norvegicus [4]): inactive; Activity (Rattus norvegicus [24]): inactive; Activity (Rattus norvegicus [23]): inactive
4 | CCC(C)C(CC)C(N)=O (configuration not stated) [VALNOCTAMIDE] | 52 mg/kg | 29 mg/kg | – | – | – | – | – | – | – | – | – | – | – | – | – | – | – | – | – | – | ratio (Rattus norvegicus [2]): 0.56
5 | CCCC(C(N)=O)C(C)CC (configuration not stated) | 49 mg/kg | inactive | inactive | inactive | inactive | inactive | – | – | inactive | inactive | inactive | inactive | inactive | Active | inactive | inactive | inactive | inactive | inactive | Active | ED50 (Rattus norvegicus [25]): 84 mg/kg; ED97 (Rattus norvegicus [25]): 149 mg/kg; Activity (Rattus norvegicus [26]): Active; Activity (Rattus norvegicus [27]): Active
6 | CC(C)(C)CC(N)=O | – | – | inactive | inactive | inactive | inactive | inactive | – | inactive | – | inactive | inactive | inactive | inactive | – | inactive | inactive | inactive | inactive | inactive | Activity (Rattus norvegicus [4]): inactive; Activity (Rattus norvegicus [28]): inactive; Activity (Rattus norvegicus [24]): inactive; Activity (Rattus norvegicus [29]): inactive; Activity (Rattus norvegicus [23]): inactive
7 | CNC(=O)CC(C)(C)C | – | – | inactive | inactive | inactive | inactive | inactive | inactive | inactive | inactive | inactive | inactive | inactive | inactive | inactive | inactive | inactive | inactive | inactive | inactive | Activity (Rattus norvegicus [4]): inactive; Activity (Rattus norvegicus [28]): inactive; Activity (Rattus norvegicus [24]): inactive; Activity (Rattus norvegicus [29]): inactive; Activity (Rattus norvegicus [23]): inactive
8 | CC(C)C(C(N)=O)C(C)C | 58 mg/kg | 51 mg/kg | – | – | – | – | – | – | – | – | – | – | – | – | – | – | – | – | – | – | ratio (Rattus norvegicus [2]): 0.88
9 | CCCCC(CC)C(=O)NC(N)=O (configuration not stated) | – | – | inactive | inactive | inactive | inactive | – | Active | inactive | inactive | inactive | inactive | inactive | Active | inactive | inactive | inactive | inactive | inactive | Active | Activity (Rattus norvegicus [4]): inactive; ED50 (Rattus norvegicus [25]): 247 mg/kg; ED97 (Rattus norvegicus [25]): 439 mg/kg; Activity (Rattus norvegicus [28]): inactive; Activity (Rattus norvegicus [24]): inactive; Activity (Rattus norvegicus [29]): inactive; Activity (Rattus norvegicus [23]): inactive
10 | CC(C)C(C)C(N)=O (configuration not stated) | – | – | inactive | inactive | inactive | inactive | inactive | inactive | inactive | inactive | inactive | inactive | inactive | inactive | inactive | inactive | inactive | inactive | inactive | inactive | Activity (Rattus norvegicus [30]): Active; Activity (Rattus norvegicus [31]): Active
11 | CCC(C(N)=O)C(C)(C)C (configuration not stated) | – | – | Active | inactive | inactive | inactive | inactive | – | inactive | inactive | inactive | inactive | inactive | inactive | inactive | inactive | inactive | inactive | inactive | Active | ED50 (Rattus norvegicus [25]): 257 mg/kg; ED97 (Rattus norvegicus [25]): 451 mg/kg; Activity (Rattus norvegicus [32]): Active; Activity (Rattus norvegicus [29]): inactive
12 | CCCC(CCC)C(N)=O [VALPROMIDE] | 61 mg/kg | 32 mg/kg | – | – | – | – | – | – | – | – | – | – | – | – | – | – | – | – | – | – | ratio (Rattus norvegicus [2]): 0.52
13 | CCC(C)C(C(N)=O)C(C)C (configuration not stated) | 50 mg/kg | inactive | inactive | inactive | inactive | inactive | Active | Active | inactive | inactive | inactive | inactive | inactive | Active | – | inactive | Active | inactive | Active | Active | –
14 | CCCC(C(N)=O)C(C)(C)C (configuration not stated) | – | – | Active | inactive | inactive | inactive | – | – | inactive | inactive | inactive | – | inactive | Active | – | inactive | inactive | inactive | – | Active | Activity (Rattus norvegicus [26]): Active; Activity (Rattus norvegicus [27]): Active
